Assay results published in the kinase profiling compilation of Christmann-Franck et al. (2016).

Columns and labels:
Assay in all cases: KINOMEscan competition binding
Settings in all cases: compound 10.0 µM
BMPR1B (human) = BMPR1B (human) (UniProt O00238)
BLK (human) = BLK (human) (UniProt P51451)
ROCK1 (human) = ROCK1 (human) (UniProt Q13464)
PRKD3 (human) = PRKD3 (human) (UniProt O94806)
MELK (human) = MELK (human) (UniProt Q14680)
PTK6 (human) = PTK6 (human) (UniProt Q13882)
SRPK2 (human) = SRPK2 (human) (UniProt P78362)
PAK6 (human) = PAK6 (human) (UniProt Q9NQU5)
FRK (human) = FRK (human) (UniProt P42685)
IKBKB (human) = IKBKB (human) (UniProt O14920)
CLK3 (human) = CLK3 (human) (UniProt P49761)
STK32B (human) = STK32B (human) (UniProt Q9NY57)
CASK (human) = CASK (human) (UniProt O14936)
ROCK2 (human) = ROCK2 (human) (UniProt O75116)
MST4 (human) = MST4 (human) (UniProt Q9P289)
[1] = system: EGFR (human), P00533 [T790M]
[2] = target: JAK2 JH1 catalytic (human) (UniProt O60674)
RPS6KA2 KD2 (human) = RPS6KA2 KD2 (human) (UniProt Q15349)
MAP2K4 (human) = MAP2K4 (human) (UniProt P45985)
LATS2 (human) = LATS2 (human) (UniProt Q9NRM7)
MARK4 (human) = MARK4 (human) (UniProt Q96L34)
LIMK2 (human) = LIMK2 (human) (UniProt P53671)
PIK3CG (human) = PIK3CG (human) (UniProt P48736)
EPHA1 (human) = EPHA1 (human) (UniProt P21709)
CaMK1 (human) = CaMK1 (human) (UniProt Q14012)
CDKL1 (human) = CDKL1 (human) (UniProt Q00532)
PAK3 (human) = PAK3 (human) (UniProt O75914)
RPS6KA5 KD2 (human) = RPS6KA5 KD2 (human) (UniProt O75582)
CDK19 (human) = CDK19 (human) (UniProt Q9BWU1)
MAP2K7 (human) = MAP2K7 (human) (UniProt O14733)
RIPK4 (human) = RIPK4 (human) (UniProt P57078)
TAOK3 (human) = TAOK3 (human) (UniProt Q9H2K8)
PIP4K2B (human) = PIP4K2B (human) (UniProt P78356)
PKMYT1 (human) = PKMYT1 (human) (UniProt Q99640)
ABL1 (human) = ABL1 (human) (UniProt P00519)
[3] = system: ABL1 (human), P00519 [H396P]

PIK3CG (human), sequence (P48736 whole entry, looked up): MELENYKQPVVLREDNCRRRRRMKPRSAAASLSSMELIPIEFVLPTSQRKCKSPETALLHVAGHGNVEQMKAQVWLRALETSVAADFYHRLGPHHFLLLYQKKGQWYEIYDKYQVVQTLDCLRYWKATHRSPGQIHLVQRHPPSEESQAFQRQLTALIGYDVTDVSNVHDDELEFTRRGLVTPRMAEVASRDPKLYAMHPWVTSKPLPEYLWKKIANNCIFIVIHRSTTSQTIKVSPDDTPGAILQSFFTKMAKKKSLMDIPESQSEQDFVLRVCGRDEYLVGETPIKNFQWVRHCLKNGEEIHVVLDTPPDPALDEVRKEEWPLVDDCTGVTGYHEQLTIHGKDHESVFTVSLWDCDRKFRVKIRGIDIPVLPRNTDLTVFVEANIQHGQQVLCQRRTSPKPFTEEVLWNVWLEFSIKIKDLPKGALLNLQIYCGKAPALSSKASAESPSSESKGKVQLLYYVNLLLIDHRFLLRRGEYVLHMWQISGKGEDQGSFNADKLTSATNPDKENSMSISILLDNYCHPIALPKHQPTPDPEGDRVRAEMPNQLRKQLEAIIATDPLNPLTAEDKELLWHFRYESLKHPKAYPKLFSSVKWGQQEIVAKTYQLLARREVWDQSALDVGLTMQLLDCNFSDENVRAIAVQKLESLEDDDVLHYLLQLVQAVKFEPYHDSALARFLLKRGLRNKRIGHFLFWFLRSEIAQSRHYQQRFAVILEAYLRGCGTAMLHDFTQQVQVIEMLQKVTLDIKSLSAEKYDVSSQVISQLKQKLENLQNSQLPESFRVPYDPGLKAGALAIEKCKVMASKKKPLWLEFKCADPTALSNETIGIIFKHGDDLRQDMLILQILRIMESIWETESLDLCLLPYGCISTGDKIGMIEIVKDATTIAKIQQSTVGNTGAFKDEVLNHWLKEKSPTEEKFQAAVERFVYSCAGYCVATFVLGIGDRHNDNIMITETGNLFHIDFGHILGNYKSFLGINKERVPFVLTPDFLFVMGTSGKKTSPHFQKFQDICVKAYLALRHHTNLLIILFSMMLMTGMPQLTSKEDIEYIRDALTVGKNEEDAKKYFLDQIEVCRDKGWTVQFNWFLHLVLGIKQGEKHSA
LIMK2 (human), sequence (P53671 whole entry, looked up): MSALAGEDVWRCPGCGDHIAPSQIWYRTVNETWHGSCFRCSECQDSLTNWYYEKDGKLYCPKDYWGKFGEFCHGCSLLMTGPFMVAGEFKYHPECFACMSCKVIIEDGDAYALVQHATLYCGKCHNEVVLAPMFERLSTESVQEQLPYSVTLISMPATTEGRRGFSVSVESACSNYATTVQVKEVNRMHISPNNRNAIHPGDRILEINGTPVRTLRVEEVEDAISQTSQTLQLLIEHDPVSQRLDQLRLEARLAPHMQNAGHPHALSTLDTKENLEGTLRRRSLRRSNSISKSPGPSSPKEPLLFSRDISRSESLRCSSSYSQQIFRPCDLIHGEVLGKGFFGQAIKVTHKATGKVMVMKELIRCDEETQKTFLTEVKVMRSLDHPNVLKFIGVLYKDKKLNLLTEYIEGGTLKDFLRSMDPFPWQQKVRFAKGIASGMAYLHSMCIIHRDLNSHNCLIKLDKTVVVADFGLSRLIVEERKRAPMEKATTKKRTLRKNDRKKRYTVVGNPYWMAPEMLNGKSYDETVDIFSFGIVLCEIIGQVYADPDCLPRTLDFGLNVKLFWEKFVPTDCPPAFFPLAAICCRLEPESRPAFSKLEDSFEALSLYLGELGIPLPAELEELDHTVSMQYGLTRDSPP
JAK2 JH1 catalytic (human), sequence (O60674 whole entry, looked up): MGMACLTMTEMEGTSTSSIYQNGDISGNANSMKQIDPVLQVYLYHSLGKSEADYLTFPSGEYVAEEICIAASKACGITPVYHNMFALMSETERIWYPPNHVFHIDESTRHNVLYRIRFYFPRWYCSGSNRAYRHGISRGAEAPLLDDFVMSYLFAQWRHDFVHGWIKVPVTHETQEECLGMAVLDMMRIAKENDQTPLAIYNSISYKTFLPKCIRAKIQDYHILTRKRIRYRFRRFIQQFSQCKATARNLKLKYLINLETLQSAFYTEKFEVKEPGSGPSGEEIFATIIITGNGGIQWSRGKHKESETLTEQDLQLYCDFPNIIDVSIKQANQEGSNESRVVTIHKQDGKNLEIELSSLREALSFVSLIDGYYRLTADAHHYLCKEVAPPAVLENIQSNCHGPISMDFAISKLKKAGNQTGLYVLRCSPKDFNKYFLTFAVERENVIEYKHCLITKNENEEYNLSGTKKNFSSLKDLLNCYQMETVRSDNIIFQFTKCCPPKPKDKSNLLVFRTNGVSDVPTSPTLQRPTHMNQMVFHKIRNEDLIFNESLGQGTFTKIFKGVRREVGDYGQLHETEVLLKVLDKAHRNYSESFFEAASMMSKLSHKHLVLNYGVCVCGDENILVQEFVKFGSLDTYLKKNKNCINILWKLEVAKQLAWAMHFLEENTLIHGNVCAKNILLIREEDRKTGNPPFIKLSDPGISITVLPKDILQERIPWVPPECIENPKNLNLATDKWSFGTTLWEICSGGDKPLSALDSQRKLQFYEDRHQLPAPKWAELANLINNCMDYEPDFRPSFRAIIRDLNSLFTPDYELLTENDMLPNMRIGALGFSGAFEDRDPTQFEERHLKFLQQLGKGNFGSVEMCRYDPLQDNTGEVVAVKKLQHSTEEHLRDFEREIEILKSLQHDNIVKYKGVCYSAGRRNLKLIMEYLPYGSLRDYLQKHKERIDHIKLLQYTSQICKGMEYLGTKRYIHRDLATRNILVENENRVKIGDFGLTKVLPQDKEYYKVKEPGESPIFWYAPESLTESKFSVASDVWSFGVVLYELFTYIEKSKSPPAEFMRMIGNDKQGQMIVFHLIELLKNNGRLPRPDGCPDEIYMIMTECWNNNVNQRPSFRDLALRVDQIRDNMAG
TAOK3 (human), sequence (Q9H2K8 whole entry, looked up): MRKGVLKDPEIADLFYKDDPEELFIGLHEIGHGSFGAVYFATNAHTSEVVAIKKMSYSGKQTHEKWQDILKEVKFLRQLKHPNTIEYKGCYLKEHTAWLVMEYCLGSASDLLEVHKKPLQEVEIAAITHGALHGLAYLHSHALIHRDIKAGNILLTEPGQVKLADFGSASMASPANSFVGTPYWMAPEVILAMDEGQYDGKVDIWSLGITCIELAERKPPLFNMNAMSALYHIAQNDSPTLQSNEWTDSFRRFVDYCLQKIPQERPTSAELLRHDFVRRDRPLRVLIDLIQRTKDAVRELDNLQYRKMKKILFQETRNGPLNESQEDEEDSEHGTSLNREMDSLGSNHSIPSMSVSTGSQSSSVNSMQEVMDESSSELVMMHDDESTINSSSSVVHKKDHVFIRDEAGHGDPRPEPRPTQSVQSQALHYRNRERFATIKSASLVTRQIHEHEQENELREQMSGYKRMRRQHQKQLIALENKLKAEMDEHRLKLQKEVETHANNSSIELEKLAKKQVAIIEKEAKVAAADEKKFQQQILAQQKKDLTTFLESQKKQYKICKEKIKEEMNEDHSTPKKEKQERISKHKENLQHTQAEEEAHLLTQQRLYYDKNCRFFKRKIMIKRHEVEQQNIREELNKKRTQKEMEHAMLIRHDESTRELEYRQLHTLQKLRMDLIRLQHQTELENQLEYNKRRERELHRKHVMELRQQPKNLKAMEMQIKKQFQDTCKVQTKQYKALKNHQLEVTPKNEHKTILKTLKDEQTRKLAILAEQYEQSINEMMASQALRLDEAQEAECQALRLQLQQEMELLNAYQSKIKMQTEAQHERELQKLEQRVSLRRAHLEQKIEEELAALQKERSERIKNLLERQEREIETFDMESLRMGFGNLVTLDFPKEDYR
RPS6KA2 KD2 (human), sequence (Q15349 whole entry, looked up): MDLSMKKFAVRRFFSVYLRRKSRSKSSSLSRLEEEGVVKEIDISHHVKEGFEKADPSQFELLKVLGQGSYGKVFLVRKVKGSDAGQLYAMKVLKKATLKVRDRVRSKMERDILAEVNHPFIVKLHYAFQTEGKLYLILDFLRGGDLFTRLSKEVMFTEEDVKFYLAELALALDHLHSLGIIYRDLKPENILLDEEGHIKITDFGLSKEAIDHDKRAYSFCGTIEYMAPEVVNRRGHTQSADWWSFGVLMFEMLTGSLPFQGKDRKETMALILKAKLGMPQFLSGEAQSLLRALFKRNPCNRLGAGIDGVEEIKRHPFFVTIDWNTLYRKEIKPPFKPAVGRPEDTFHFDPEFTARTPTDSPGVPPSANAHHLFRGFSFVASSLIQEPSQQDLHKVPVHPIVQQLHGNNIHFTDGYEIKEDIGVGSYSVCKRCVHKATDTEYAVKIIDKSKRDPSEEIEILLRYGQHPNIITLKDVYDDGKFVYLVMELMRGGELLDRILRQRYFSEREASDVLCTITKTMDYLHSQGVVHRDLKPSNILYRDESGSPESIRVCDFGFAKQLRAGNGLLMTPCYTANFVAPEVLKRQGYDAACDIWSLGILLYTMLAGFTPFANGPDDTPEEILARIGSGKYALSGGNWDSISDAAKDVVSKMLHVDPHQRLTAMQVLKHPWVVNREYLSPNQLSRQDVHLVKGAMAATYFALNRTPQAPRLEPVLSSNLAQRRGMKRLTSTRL
STK32B (human), sequence (Q9NY57 whole entry, looked up): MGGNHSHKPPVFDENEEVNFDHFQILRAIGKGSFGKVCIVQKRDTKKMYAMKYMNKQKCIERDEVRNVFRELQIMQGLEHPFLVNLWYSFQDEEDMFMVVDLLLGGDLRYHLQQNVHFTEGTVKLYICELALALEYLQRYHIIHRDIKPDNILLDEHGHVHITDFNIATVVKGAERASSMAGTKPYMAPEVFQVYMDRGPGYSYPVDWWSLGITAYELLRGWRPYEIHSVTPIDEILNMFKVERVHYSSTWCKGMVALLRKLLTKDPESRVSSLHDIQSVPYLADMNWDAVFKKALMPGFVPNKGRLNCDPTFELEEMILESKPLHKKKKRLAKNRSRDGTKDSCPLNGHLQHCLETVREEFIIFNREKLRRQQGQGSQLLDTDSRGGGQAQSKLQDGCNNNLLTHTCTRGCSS

## C=CC(=O)Nc1cc(-n2c(=O)ccc3cnc4ccc(-c5cn[nH]c5)cc4c32)ccc1C
BMPR1B (human)
  kinase still bound, per cent of control: 73%
BLK (human)
  kinase still bound, per cent of control: 2.4%
ROCK1 (human)
  kinase still bound, per cent of control: 94%
PRKD3 (human)
  kinase still bound, per cent of control: 98%
MELK (human)
  kinase still bound, per cent of control: 43%
PTK6 (human)
  kinase still bound, per cent of control: 100%
SRPK2 (human)
  kinase still bound, per cent of control: 96%
PAK6 (human)
  kinase still bound, per cent of control: 96%
FRK (human)
  kinase still bound, per cent of control: 99%
IKBKB (human)
  kinase still bound, per cent of control: 73%
CLK3 (human)
  kinase still bound, per cent of control: 46%
STK32B (human)
  kinase still bound, per cent of control: 100%
CASK (human)
  kinase still bound, per cent of control: 58%
ROCK2 (human)
  kinase still bound, per cent of control: 72%
MST4 (human)
  kinase still bound, per cent of control: 79%
[1]
  kinase still bound, per cent of control: 1.4%
[2]
  kinase still bound, per cent of control: 16%
RPS6KA2 KD2 (human)
  kinase still bound, per cent of control: 92%
MAP2K4 (human)
  kinase still bound, per cent of control: 14%
LATS2 (human)
  kinase still bound, per cent of control: 53%
MARK4 (human)
  kinase still bound, per cent of control: 64%
LIMK2 (human)
  kinase still bound, per cent of control: 100%
PIK3CG (human)
  kinase still bound, per cent of control: 4.2%
EPHA1 (human)
  kinase still bound, per cent of control: 94%
CaMK1 (human)
  kinase still bound, per cent of control: 96%
CDKL1 (human)
  kinase still bound, per cent of control: 33%
PAK3 (human)
  kinase still bound, per cent of control: 81%
RPS6KA5 KD2 (human)
  kinase still bound, per cent of control: 75%
CDK19 (human)
  kinase still bound, per cent of control: 100%
MAP2K7 (human)
  kinase still bound, per cent of control: 14%
RIPK4 (human)
  kinase still bound, per cent of control: 67%
TAOK3 (human)
  kinase still bound, per cent of control: 47%
PIP4K2B (human)
  kinase still bound, per cent of control: 73%
PKMYT1 (human)
  kinase still bound, per cent of control: 81%

## Cc1n[nH]c2ccc(-c3cncc(OC[C@@H](N)Cc4c[nH]c5ccccc45)c3)cc12
BMPR1B (human)
  kinase still bound, per cent of control: 100%
PRKD3 (human)
  kinase still bound, per cent of control: 1.6%
MELK (human)
  kinase still bound, per cent of control: 12%
ABL1 (human)
  kinase still bound, per cent of control: 100%
PTK6 (human)
  kinase still bound, per cent of control: 100%
SRPK2 (human)
  kinase still bound, per cent of control: 22%
PAK6 (human)
  kinase still bound, per cent of control: 16%
FRK (human)
  kinase still bound, per cent of control: 100%
IKBKB (human)
  kinase still bound, per cent of control: 34%
CLK3 (human)
  kinase still bound, per cent of control: 0%
STK32B (human)
  kinase still bound, per cent of control: 100%
ROCK2 (human)
  kinase still bound, per cent of control: 0%
MST4 (human)
  kinase still bound, per cent of control: 30%
[2]
  kinase still bound, per cent of control: 100%
RPS6KA2 KD2 (human)
  kinase still bound, per cent of control: 100%
MAP2K4 (human)
  kinase still bound, per cent of control: 100%
LATS2 (human)
  kinase still bound, per cent of control: 0%
MARK4 (human)
  kinase still bound, per cent of control: 100%
LIMK2 (human)
  kinase still bound, per cent of control: 100%
PIK3CG (human)
  kinase still bound, per cent of control: 100%
EPHA1 (human)
  kinase still bound, per cent of control: 100%
CaMK1 (human)
  kinase still bound, per cent of control: 33%
[3]
  kinase still bound, per cent of control: 100%
PAK3 (human)
  kinase still bound, per cent of control: 100%
RPS6KA5 KD2 (human)
  kinase still bound, per cent of control: 17%
CDK19 (human)
  kinase still bound, per cent of control: 0.5%
RIPK4 (human)
  kinase still bound, per cent of control: 100%
TAOK3 (human)
  kinase still bound, per cent of control: 0.1%
PIP4K2B (human)
  kinase still bound, per cent of control: 5.4%
PKMYT1 (human)
  kinase still bound, per cent of control: 100%

## CCN1CCN(C(=O)Cc2ccc(Nc3ncc(F)c(Nc4ccc(C(=O)Nc5ccccc5Cl)cc4)n3)cc2)CC1
BMPR1B (human)
  kinase still bound, per cent of control: 22%
BLK (human)
  kinase still bound, per cent of control: 28%
ROCK1 (human)
  kinase still bound, per cent of control: 81%
PRKD3 (human)
  kinase still bound, per cent of control: 100%
MELK (human)
  kinase still bound, per cent of control: 55%
PTK6 (human)
  kinase still bound, per cent of control: 16%
SRPK2 (human)
  kinase still bound, per cent of control: 11%
PAK6 (human)
  kinase still bound, per cent of control: 65%
FRK (human)
  kinase still bound, per cent of control: 28%
IKBKB (human)
  kinase still bound, per cent of control: 27%
CLK3 (human)
  kinase still bound, per cent of control: 23%
STK32B (human)
  kinase still bound, per cent of control: 100%
CASK (human)
  kinase still bound, per cent of control: 82%
ROCK2 (human)
  kinase still bound, per cent of control: 75%
MST4 (human)
  kinase still bound, per cent of control: 43%
[1]
  kinase still bound, per cent of control: 13%
[2]
  kinase still bound, per cent of control: 76%
RPS6KA2 KD2 (human)
  kinase still bound, per cent of control: 57%
MAP2K4 (human)
  kinase still bound, per cent of control: 49%
LATS2 (human)
  kinase still bound, per cent of control: 100%
MARK4 (human)
  kinase still bound, per cent of control: 17%
LIMK2 (human)
  kinase still bound, per cent of control: 30%
PIK3CG (human)
  kinase still bound, per cent of control: 65%
EPHA1 (human)
  kinase still bound, per cent of control: 27%
CaMK1 (human)
  kinase still bound, per cent of control: 14%
CDKL1 (human)
  kinase still bound, per cent of control: 41%
PAK3 (human)
  kinase still bound, per cent of control: 12%
RPS6KA5 KD2 (human)
  kinase still bound, per cent of control: 66%
CDK19 (human)
  kinase still bound, per cent of control: 76%
MAP2K7 (human)
  kinase still bound, per cent of control: 100%
RIPK4 (human)
  kinase still bound, per cent of control: 31%
TAOK3 (human)
  kinase still bound, per cent of control: 69%
PIP4K2B (human)
  kinase still bound, per cent of control: 1.6%
PKMYT1 (human)
  kinase still bound, per cent of control: 100%

## COc1ccc(N(C(=O)Oc2c(C)cccc2C)c2ccnc(Nc3ccc(N4CCN(C)CC4)cc3)n2)c(OC)c1
BMPR1B (human)
  kinase still bound, per cent of control: 80%
BLK (human)
  kinase still bound, per cent of control: 0.05%
ROCK1 (human)
  kinase still bound, per cent of control: 65%
PRKD3 (human)
  kinase still bound, per cent of control: 11%
MELK (human)
  kinase still bound, per cent of control: 46%
PTK6 (human)
  kinase still bound, per cent of control: 0%
SRPK2 (human)
  kinase still bound, per cent of control: 42%
PAK6 (human)
  kinase still bound, per cent of control: 71%
FRK (human)
  kinase still bound, per cent of control: 0%
IKBKB (human)
  kinase still bound, per cent of control: 93%
CLK3 (human)
  kinase still bound, per cent of control: 88%
STK32B (human)
  kinase still bound, per cent of control: 1.1%
CASK (human)
  kinase still bound, per cent of control: 90%
ROCK2 (human)
  kinase still bound, per cent of control: 88%
MST4 (human)
  kinase still bound, per cent of control: 33%
[1]
  kinase still bound, per cent of control: 2.2%
[2]
  kinase still bound, per cent of control: 35%
RPS6KA2 KD2 (human)
  kinase still bound, per cent of control: 78%
MAP2K4 (human)
  kinase still bound, per cent of control: 100%
LATS2 (human)
  kinase still bound, per cent of control: 70%
MARK4 (human)
  kinase still bound, per cent of control: 49%
LIMK2 (human)
  kinase still bound, per cent of control: 0%
PIK3CG (human)
  kinase still bound, per cent of control: 100%
EPHA1 (human)
  kinase still bound, per cent of control: 0%
CaMK1 (human)
  kinase still bound, per cent of control: 83%
CDKL1 (human)
  kinase still bound, per cent of control: 100%
PAK3 (human)
  kinase still bound, per cent of control: 4%
RPS6KA5 KD2 (human)
  kinase still bound, per cent of control: 93%
CDK19 (human)
  kinase still bound, per cent of control: 100%
MAP2K7 (human)
  kinase still bound, per cent of control: 85%
RIPK4 (human)
  kinase still bound, per cent of control: 92%
TAOK3 (human)
  kinase still bound, per cent of control: 4%
PIP4K2B (human)
  kinase still bound, per cent of control: 5.4%
PKMYT1 (human)
  kinase still bound, per cent of control: 100%

## CCN(CC)CCCCNc1ncc2cc(-c3cc(OC)cc(OC)c3)c(NC(=O)NC(C)(C)C)nc2n1
BMPR1B (human)
  kinase still bound, per cent of control: 100%
BLK (human)
  kinase still bound, per cent of control: 100%
PRKD3 (human)
  kinase still bound, per cent of control: 100%
MELK (human)
  kinase still bound, per cent of control: 100%
ABL1 (human)
  kinase still bound, per cent of control: 100%
PTK6 (human)
  kinase still bound, per cent of control: 100%
SRPK2 (human)
  kinase still bound, per cent of control: 100%
PAK6 (human)
  kinase still bound, per cent of control: 100%
FRK (human)
  kinase still bound, per cent of control: 100%
CLK3 (human)
  kinase still bound, per cent of control: 100%
STK32B (human)
  kinase still bound, per cent of control: 100%
MST4 (human)
  kinase still bound, per cent of control: 100%
[2]
  kinase still bound, per cent of control: 100%
RPS6KA2 KD2 (human)
  kinase still bound, per cent of control: 100%
MAP2K4 (human)
  kinase still bound, per cent of control: 100%
LATS2 (human)
  kinase still bound, per cent of control: 100%
MARK4 (human)
  kinase still bound, per cent of control: 100%
LIMK2 (human)
  kinase still bound, per cent of control: 100%
EPHA1 (human)
  kinase still bound, per cent of control: 100%
CaMK1 (human)
  kinase still bound, per cent of control: 100%
[3]
  kinase still bound, per cent of control: 100%
PAK3 (human)
  kinase still bound, per cent of control: 100%
RPS6KA5 KD2 (human)
  kinase still bound, per cent of control: 100%
CDK19 (human)
  kinase still bound, per cent of control: 100%
PIP4K2B (human)
  kinase still bound, per cent of control: 100%
PKMYT1 (human)
  kinase still bound, per cent of control: 100%
